Read-outs that look alike come from different tables or passages of the source.
Experiments:
[1] = test system: subjects with refractory gout; conditions: after doses of 4 to 12 mg; from 11.1±0.6 mg/dL; cited from earlier work
[2] = Pegloticase serum concentrations (Cmax, Cmin), enzymatic/fluorescence assay, MIRROR OL; format: in vivo, human; conditions: with MTX Co-Treatment
Text: Pharmacokinetic and Anti-drug Antibody Measurements: Serum samples for PK analysis of pegloticase were collected prior to the pegloticase infusion and after the end of infusion (prior to discharge) on Day 1 and at the Weeks 2, 4, 6, 8 and 36 Visits or weeks 2, 6, 14, 24, 36, for the open-label and randomized studies, respectively, and prior to the pegloticase infusion only at the Weeks 10, 14, 18, 22, 24 (open-label study); at the End of Pegloticase Infusions Visit (if applicable); and the Week 52/End of Study/Early Termination Visits. Visits for frequent sampling of a subset of subjects who consent for additional non-infusion visit PK sampling occurred at Weeks 1 and 7 or at week 21 for the open-label and randomized studies, respectively.
An enzymatic/fluorescence assay was used to quantitate pegloticase concentrations in serum. In the assay, pegloticase catalyzes the conversion of UA to allantoin, thus releasing hydrogen peroxide (H2O2) and carbon dioxide. In the presence of horseradish peroxidase, H2O2 reacts with a 1:1 stoichiometry with Amplex Ultra Red (Molecular Probes, Inc., Eugene, Oreg.) to generate the red fluorescence oxidation product, resorufin. The concentration of resorufin, which is determined by fluorometry, is proportional to the amount of active pegloticase present in the serum samples. The lower limit of detection established in previous studies has been determined to be 0.6 μg/mL.
Methods: In the MIRROR OL trial, MTX (15 mg/week) was given orally 4 weeks prior to the first pegloticase dose and continued weekly, in combination with pegloticase 8 mg given intravenously every 2 weeks, for a treatment duration of up to 52 weeks. Pre-infusion samples were collected to measure MTX-PGs 1 to 5 in red blood cells at day 1, week 4, 8, 22, 24 and 36. […] Pegloticase concentrations in serum was measured using a validated enzymatic/fluorescence assay. The limit of quantification is 0.6 μg/mL. Anti-pegloticase/PEG IgG antibodies (ADA) were measured using a validated enzyme linked immunosorbent assay (ELISA). The analysis of MTX Polyglutamates was conducted by Exagen. The impact of MTX on pegloticase PK was evaluated by two methods: (1) Comparing pegloticase exposures (median Cmax and Cmin across visits) with MTX from the MIRROR OL trial to the observed levels in historical monotherapy Phase 3 studies (C0405 and C0406) (Lipsky et al., Arthritis Res Ther 16(2), 2014; Sundy et al., JAMA 306(7), 2011). Overlaying observed pegloticase concentrations with MTX against the 90% prediction band of pegloticase concentrations following monotherapy based on the population PK model from the Phase 3 data (Yue et al., ASCPT. Atlanta, 2010).

[3] = test system: patients with refractory chronic gout; conditions: Phase 2 program; cited from earlier work
[4] = test system: adult patients with uncontrolled gout; conditions: human, in vivo

Compound: pegloticase
- plasma urate concentration (pUAc) after dosing, mean±SD [1]: 1.0±0.5 mg/dL
- Cmax BQL, % ([2]; Quantitation Limit 0.6 μg/mL): 0%
- Cmax BQL, n/N ([2]; Quantitation Limit 0.6 μg/mL): 0/14
- Cmin BQL, % ([2]; Quantitation Limit 0.6 μg/mL): 36%
- Cmin BQL, n/N ([2]; Quantitation Limit 0.6 μg/mL): 5/14
- Cmax, Median (Q1, Q3) ([2]; serum, BQL: below 0.6 μg/mL): 2.11 (1.65, 2.59) μg/mL
- Cmin, Median (Q1, Q3) ([2]; serum, BQL: below 0.6 μg/mL): 1.03 (BQL, 1.23) μg/mL
- dose-response plateau dose [3]: 12 mg
- minimally effective dose [3]: 4 mg
- safe and optimally effective dose [3]: 8 mg

Compound: CN(Cc1cnc2nc(N)nc(N)c2n1)c1ccc(C(=O)N[C@@H](CCC(=O)O)C(=O)O)cc1 [MTX, methotrexate]
- Number of gout flares among subjects with at least one gout flare, Mean (SD) [4]: 1.2
- Number of gout flares among subjects with at least one gout flare, Median [4]: 1.0
- Any Gout Flares Since the Last Visit, % ([4]; 1 day): (57.1) %
- Maximum Reported Intensity of Flare (0-10 scale), Mean ([4]; 1 day): 5.8
- Maximum Reported Intensity of Flare (0-10 scale), Median ([4]; 1 day): 5.5
- Maximum Reported Intensity of Flare (0-10 scale), Min, Max ([4]; 1 day): 4, 8
- Pain at rest > 3 out of 10, % ([4]; 1 day): (57.1) %
- Pain different than normal, % ([4]; 1 day): (50.0) %
- Swelling in Joints, % ([4]; 1 day): (42.9) %
- Maximum Reported Intensity of Flare (0-10 scale), Median ([4]; -4 week): 8.0
- Maximum Reported Intensity of Flare (0-10 scale), Min, Max ([4]; -4 week): 7, 10

Source: US20220409620A1, “REDUCING IMMUNOGENICITY TO PEGLOTICASE” (Horizon Pharma Rheumatology LLC, priority 2016, published 2022)
